Source: patent US7566712B2, “Biaryl piperazinyl-pyridine analogues” (Neurogen Corporation, priority 2003, dated 2009)

biological target: T1, human capsaicin receptor (Homo sapiens, UniProt Q8NER1); assay: Calcium mobilization assay, determination of antagonist activity (Example 6); type: cell-based; details: Table II; IC50 determined as described in Example 6 (antagonist activity, calcium mobilization)
T1 construct: pBK-CMV expression construct encoding the full length human capsaicin receptor; expressed in transfected cells
T1 sequence (Q8NER1 whole entry): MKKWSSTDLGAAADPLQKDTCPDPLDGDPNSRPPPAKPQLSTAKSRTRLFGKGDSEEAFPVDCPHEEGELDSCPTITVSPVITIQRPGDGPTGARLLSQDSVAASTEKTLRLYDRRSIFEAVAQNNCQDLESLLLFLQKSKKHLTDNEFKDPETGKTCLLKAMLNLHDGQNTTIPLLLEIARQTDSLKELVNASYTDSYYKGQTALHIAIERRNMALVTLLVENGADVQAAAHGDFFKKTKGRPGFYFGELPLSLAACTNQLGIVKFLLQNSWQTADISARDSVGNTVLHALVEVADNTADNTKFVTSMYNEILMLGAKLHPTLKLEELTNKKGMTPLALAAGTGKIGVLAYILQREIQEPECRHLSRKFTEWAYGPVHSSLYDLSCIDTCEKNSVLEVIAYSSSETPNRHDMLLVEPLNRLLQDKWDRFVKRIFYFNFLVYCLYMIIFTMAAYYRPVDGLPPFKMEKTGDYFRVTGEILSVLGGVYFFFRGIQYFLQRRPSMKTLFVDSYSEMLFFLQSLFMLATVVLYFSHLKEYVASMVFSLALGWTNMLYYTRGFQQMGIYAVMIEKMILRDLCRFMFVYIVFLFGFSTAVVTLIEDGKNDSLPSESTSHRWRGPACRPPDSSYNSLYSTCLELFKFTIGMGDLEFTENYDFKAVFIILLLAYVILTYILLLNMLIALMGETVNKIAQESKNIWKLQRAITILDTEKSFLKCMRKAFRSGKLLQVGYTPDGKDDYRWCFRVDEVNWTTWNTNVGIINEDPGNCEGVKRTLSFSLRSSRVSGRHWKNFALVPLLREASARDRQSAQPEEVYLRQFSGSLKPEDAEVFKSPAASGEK
Method in brief: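 Antagonism measured as inhibition of capsaicin-evoked (final concentration = EC50, from an 8-point 1 nM–3 μM curve) Fluo-3 calcium signal in stable hVR1-HEK293 cells. Test compounds at 1–5 μM final, 0.5–6 h dark preincubation at room temperature. IC50 = concentration giving 50% reduction versus agonist-only response.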

IC50 [µM] | SMILES
≤ 1 | C[C@H]1CN(c2nccnc2Cl)CCN1c1cc(-c2ccc(F)c(Cl)c2)nc(Cl)n1 [Example 971, 2-chloro-4-(3-chloro-4-fluorophenyl)-6-[(2S)-4-(3-chloropyrazin-2-yl)-2-methylpiperazin-1-yl]pyrimidine]
≤ 1 | COc1ncc(Cl)c(N2CCN(c3cc(-c4ccc(F)cc4)nc(N4CCOCC4)n3)[C@H](C)C2)n1 [Example 972, 4-[4-[(2R)-4-(5-chloro-2-methoxypyrimidin-4-yl)-2-methylpiperazin-1-yl]-6-(4-fluorophenyl)pyrimidin-2-yl]morpholine]
≤ 1 | C[C@@H]1CCCN1c1nc(-c2ccc(F)c(Cl)c2)cc(N2CCN(c3nccnc3Cl)C[C@@H]2C)n1 [Example 973, 4-(3-chloro-4-fluorophenyl)-6-[(2S)-4-(3-chloropyrazin-2-yl)-2-methylpiperazin-1-yl]-2-[(2R)-2-methylpyrrolidin-1-yl]pyrimidine]
≤ 1 | C[C@H]1CN(c2nccnc2Cl)CCN1c1cc(-c2ccc(F)c(Cl)c2)nc(N2CCCC2)n1 [Example 974, 4-(3-chloro-4-fluorophenyl)-6-[(2S)-4-(3-chloropyrazin-2-yl)-2-methylpiperazin-1-yl]-2-pyrrolidin-1-ylpyrimidine]
≤ 1 | C[C@H]1CN(c2nccnc2Cl)CCN1c1cc(-c2ccc(F)c(Cl)c2)nc(N2CCOCC2)n1 [Example 975, 4-{4-(3-chloro-4-fluorophenyl)-6-[(2S)-4-(3-chloropyrazin-2-yl)-2-methylpiperazin-1-yl]pyrimidin-2-yl}morpholine]
≤ 1 | Cc1ccc(-c2cc(N3CCN(c4nccnc4Cl)C[C@H]3C)nc(N3CCCC3)n2)cc1F [Example 978, 4-[(2R)-4-(3-chloropyrazin-2-yl)-2-methylpiperazin-1-yl]-6-(3-fluoro-4-methylphenyl)-2-pyrrolidin-1-ylpyrimidine]

same assay, conditions: Table II; determined as described in Example 6 (antagonist activity); "*" = 1 micromolar or less

SMILES | IC50 [µM]
C[C@@H]1CCCN1c1cc(-c2ccc(Cl)c(F)c2)nc(N2CCN(c3nccnc3Cl)C[C@@H]2C)n1 [Example 963, 4-(4-chloro-3-fluorophenyl)-2-[(2S)-4-(3-chloropyrazin-2-yl)-2-methylpiperazin-1-yl]-6-[(2R)-2-methylpyrrolidin-1-yl]pyrimidine] | ≤ 1
COc1ncc(Cl)c(N2CCN(c3cc(-c4ccc(F)cc4)nc(Cl)n3)[C@H](C)C2)n1 [Example 965, 5-chloro-4-{(3R)-4-[2-chloro-6-(4-fluorophenyl)pyrimidin-4-yl]-3-methylpiperazin-1-yl}-2-methoxypyrimidine] | ≤ 1
CC1CCCN1c1nc(-c2ccc(F)cc2)cc(N2CCN(c3nc(O)ccc3Cl)C[C@H]2C)n1 (stereo partly drawn) [Example 970, 5-chloro-6-{4-[6-(4-fluorophenyl)-2-(2-methylpyrrolidin-1-yl)pyrimidin-4-yl]-3-methylpiperazin-1-yl}pyridin-2-ol] | ≤ 1

Results, then the compound that gave them:

IC50 [µM] | SMILES
≤ 1 | COc1ncc(Cl)c(N2CCN(c3cc(-c4ccc(F)cc4)nc(N4CCC[C@H]4C)n3)[C@H](C)C2)n1 [Example 966, 5-chloro-4-((3R)-4-{6-(4-fluorophenyl)-2-[(2R)-2-methylpyrrolidin-1-yl]pyrimidin-4-yl}-3-methylpiperazin-1-yl)-2-methoxypyrimidine]
≤ 1 | COc1ncc(Cl)c(N2CCN(c3cc(-c4ccc(F)cc4)nc(N4CCCC4)n3)[C@H](C)C2)n1 [Example 967, 5-chloro-4-{(3R)-4-[6-(4-fluorophenyl)-2-pyrrolidin-1-ylpyrimidin-4-yl]-3-methylpiperazin-1-yl}-2-methoxypyrimidine]
≤ 1 | COc1ncc(Cl)c(N2CCN(c3nc(-c4ccc(F)cc4)cc(N4CCC[C@H]4C)n3)[C@H](C)C2)n1 [Example 968, 5-chloro-4-((3R)-4-{4-(4-fluorophenyl)-6-[(2R)-2-methylpyrrolidin-1-yl]pyrimidin-2-yl}-3-methylpiperazin-1-yl)-2-methoxypyrimidine]
